{
  "source": "patent US20240101603A1",
  "about": "“ANTIBACTERIAL PEPTIDES AND COMPOUNDS TARGETING TOXIN-ANTITOXIN SYSTEM OF […], AND THEIR USE” (SEOUL NATIONAL UNIVERSITY R&DB FOUNDATION, priority 2021, published 2024)",
  "molecules": {"B1": {"name": "Peptide VapB^71-78, Y74A (peptide)", "peptide": "GMEAQRQL"}, "B2": {"name": "Peptide VapB^71-78, Q75A (peptide)", "peptide": "GMEYARQL"}, "B3": {"name": "Peptide VapB^71-78 (peptide)", "peptide": "GMEYQRQL"}},
  "key": {"VapBC complex": {"biological_target": "T1, VapBC complex (Klebsiella pneumoniae subsp. pneumoniae, UniProt A6TG81)", "T1 sequence (A6TG81 1-127)": "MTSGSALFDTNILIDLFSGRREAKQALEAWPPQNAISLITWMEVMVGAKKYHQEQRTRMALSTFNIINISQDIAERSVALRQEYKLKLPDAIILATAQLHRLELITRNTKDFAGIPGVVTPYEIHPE", "T1 sequence (A6TG80 1-82 partner)": "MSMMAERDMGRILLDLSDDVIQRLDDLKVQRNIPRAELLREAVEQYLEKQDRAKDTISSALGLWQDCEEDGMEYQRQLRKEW", "assay": "VapBC complex disruption assay (RNase activity of VapC released from the complex)", "assay_type": "biochemical", "conditions": "for VapBC complex disruption efficacy: 1 μM compound added to 10 μM VapBC complex, compared with peptides at 100 μM; for IC50: inhibition curves, 10 μM VapBC complex; for VapBC complex disruption efficacy (RNase activity relative to VapC): 100 μM peptide added to 10 μM VapBC complex", "protocol": "(§1) The RNase activity of VapC and VapC mutants was confirmed using an RNase Alert Kit (Integrated DNA Technologies, Inc.). In this analysis, each well contained 50 pm of synthetic RNA with a fluorophore at one end and a quencher group at the other end. The quencher was separated when the prepared RNA was contacted by RNase. Then, fluorescence (RFU) generated during the 1 hour reaction period was detected using a SPECTRAmax GEMINI XS spectrometer (Molecular Devices) at 490 nm (excitation wavelength) and 520 nm (emission wavelength), respectively. For this analysis, the purified VapC and VapC mutants were treated with 10 mM EDTA to remove metal ions and exchanged with a purification buffer containing 10 mM Mg^2+. In each experiment, the concentrations of both VapC and VapC mutants were 10 μM. To prevent contamination, 40 units of RiboLock (Thermoscientific) were added to each well.\nIn this example, the peptide (100 μM) synthesized in Example 1 was added to the VapBC complex (10 μM) and the RFU of the activated VapC toxin was measured. Other experimental protocols were the same as those for the RNase activity test of VapC and VapC mutants (Experimental Method 5). Upon addition of the peptide of the present invention to the VapBC complex, the inhibitory efficacy of the peptide can be estimated by measuring the RNase activity generated by the free VapC released by the disruption of the VapBC complex.\nUsing a similar analysis method as in the design of peptides that activate VapC, the inhibitory effect of the compounds was ranked according to the degree of RNase activity by the free VapC released due to the disruption of the VapBC complex. That is, the small molecules were added to the VapBC complex (10 μM) and the efficacy of the small molecules to activate VapC was tested. Other experimental protocols were the same as those described for the peptide-induced complex disruption assay (Examples 2 and 3)."}, "VapC": {"biological_target": "T2, VapC (Klebsiella pneumoniae subsp. pneumoniae, UniProt A6TG81)", "T2 sequence (A6TG81 1-127)": "T1 sequence (A6TG81 1-127)", "assay": "Isothermal titration calorimetry (ITC), binding to VapC", "protocol": "ITC was performed using MicroCal200 (GE Healthcare). The concentrations of protein and DNA were determined using NanoDrop (Thermo) at 280 nm and 260 nm, respectively. Stock solutions of peptides and small molecules were prepared at appropriate concentrations. Titration was performed at 25° C. The data were calculated by subtracting the background and fitted to a single-site binding model using the provided source-based software with MicroCal200."}, "free VapC": {"test_system": "free VapC", "assay": "Effect on RNase activity of free VapC", "assay_type": "biochemical, Klebsiella pneumoniae", "conditions": "substance added to free VapC", "protocol": "as §1\nHowever, if the peptide contains the residues that interact with the nucleic acid binding site of VapC, which is the active site of VapC, the destructive ability is suppressed. Accordingly, in this example, the effect of the peptide of the present invention on the activity of free VapC was analyzed.\nThrough three tests, a total of 400 compounds were narrowed down to 25 according to the inhibitory efficacy ranking. […]"}, "[1]": {"biological_target": "Klebsiella pneumoniae VapC toxin (kpn_04186) with N-terminal tag (Klebsiella pneumoniae (MGH78578))", "assay": "ITC, 25 °C, single-site binding model"}, "[2]": {"conditions": "25° C., single-site binding model"}, "[3]": {"conditions": "25° C., single-site binding model, read-out: Kd"}, "[4]": {"conditions": "read-out: Kd (affinity to VapC)"}},
  "note": "Entries after “also recorded” stand apart in the source; their conditions may differ. Read-outs that look alike come from different tables or passages of the source.",
  "data": [
    {"molecule": "NC(=O)NC(=O)CCN1CCC(C(=O)c2ccc(O)cc2)CC1", "note": "[Compound 1, N-carbamoyl-3-(4-(4-hydroxybenzoyl)piperidine-1-yl)propanamide]", "values": [
      {"measurement": "VapBC complex disruption efficacy", "setting": "VapBC complex", "result": "higher efficacy at 1 μM"},
      {"measurement": "IC50", "setting": "VapBC complex", "result": 420, "unit": "nM"},
      {"measurement": "TΔS", "setting": "VapC; 25° C.", "result": 1.93, "unit": "kcal/mol"},
      {"measurement": "ΔG", "setting": "VapC; 25° C.", "result": -6.37, "unit": "kcal/mol"},
      {"measurement": "ΔH", "setting": "VapC; 25° C.", "result": "-8.3 ± 0.03", "unit": "kcal/mol"},
      {"measurement": "n (the binding stoichiometry)", "setting": "VapC; [2]", "result": "0.98 ± 0.002"},
      {"measurement": "Kd", "setting": "VapC; [3]", "result": "35 ± 0.4", "unit": "nM"},
      {"measurement": "RNase activity of free VapC after treatment", "setting": "free VapC", "result": "did not affect the RNase activity of VapC"}
    ]},
    {"molecule": "CCC1Oc2cc(S(=O)(=O)N3CCCC(C(=O)Nc4ccc(F)cc4)C3)c(C)cc2NC1=O", "note": "(stereo not drawn) [Compound 2, 1-((2-ethyl-6-methyl-3-oxo-3,4-dihydro-2H-benzo[b][1,4]oxazine-7-yl)sulfonyl)-N-(4-fluorophenyl)piperidine-3-carboxamide]", "values": [
      {"measurement": "VapBC complex disruption efficacy", "setting": "VapBC complex", "result": "higher efficacy at 1 μM"},
      {"measurement": "IC50", "setting": "VapBC complex", "result": 400, "unit": "nM"},
      {"measurement": "TΔS", "setting": "VapC; 25° C.", "result": 1.39, "unit": "kcal/mol"},
      {"measurement": "ΔG", "setting": "VapC; 25° C.", "result": -7.71, "unit": "kcal/mol"},
      {"measurement": "ΔH", "setting": "VapC; 25° C.", "result": "-9.1 ± 0.06", "unit": "kcal/mol"},
      {"measurement": "n (the binding stoichiometry)", "setting": "VapC; [2]", "result": "0.99 ± 0.004"},
      {"measurement": "Kd", "setting": "VapC; [3]", "result": "22 ± 0.2", "unit": "nM"},
      {"measurement": "RNase activity of free VapC after treatment", "setting": "free VapC", "result": "did not affect the RNase activity of VapC"}
    ]},
    {"molecule": "GMEAARQL [VapB^71-78, Y74A, Q75A]", "values": [
      {"measurement": "VapBC complex disruption efficacy (RNase activity relative to VapC)", "setting": "VapBC complex", "result": "lower efficacy than the VapB peptide in which either one was mutated to alanine"}
    ]},
    {"molecule": "GMEAQRQL [VapB^71-78, Y74A]", "values": [
      {"measurement": "VapBC complex disruption efficacy (RNase activity relative to VapC)", "setting": "VapBC complex", "result": "highest efficacy among all the designed peptides; also recorded: higher activity than VapB^71-78"},
      {"measurement": "TΔS", "setting": "VapC; 25° C.", "result": -4.17, "unit": "kcal/mol"},
      {"measurement": "ΔG", "setting": "VapC; 25° C.", "result": -17.57, "unit": "kcal/mol"},
      {"measurement": "ΔH", "setting": "VapC; 25° C.", "result": "-13.4 ± 0.02", "unit": "kcal/mol"},
      {"measurement": "n (the binding stoichiometry)", "setting": "VapC; [2]", "result": "0.99 ± 0.001"},
      {"measurement": "Kd", "setting": "VapC; [4]", "result": 170, "unit": "nM"}
    ]},
    {"molecule": "GMEYARQL [VapB^71-78, Q75A]", "values": [
      {"measurement": "VapBC complex disruption efficacy (RNase activity relative to VapC)", "setting": "VapBC complex", "result": "higher activity than VapB^71-78"},
      {"measurement": "TΔS", "setting": "VapC; 25° C.", "result": -1.53, "unit": "kcal/mol"},
      {"measurement": "ΔG", "setting": "VapC; 25° C.", "result": -12.33, "unit": "kcal/mol"},
      {"measurement": "ΔH", "setting": "VapC; 25° C.", "result": "-10.8 ± 0.02", "unit": "kcal/mol"},
      {"measurement": "n (the binding stoichiometry)", "setting": "VapC; [2]", "result": "0.99 ± 0.001"},
      {"measurement": "Kd", "setting": "VapC; [4]", "result": 150, "unit": "nM"}
    ]},
    {"molecule": "GMEYQRQL [VapB^71-78]", "values": [
      {"measurement": "TΔS", "setting": "VapC; 25° C.", "result": -8.4, "unit": "kcal/mol"},
      {"measurement": "ΔG", "setting": "VapC; 25° C.", "result": -26.3, "unit": "kcal/mol"},
      {"measurement": "ΔH", "setting": "VapC; 25° C.", "result": "-17.9 ± 0.07", "unit": "kcal/mol"},
      {"measurement": "n (the binding stoichiometry)", "setting": "VapC; [2]", "result": "1.02 ± 0.002"},
      {"measurement": "Kd", "setting": "VapC; [4]", "result": 110, "unit": "nM"}
    ]},
    {"molecule": "Klebsiella pneumoniae VapB antitoxin (kpn_04185)", "values": [
      {"measurement": "Kd", "setting": "[1]", "result": 3, "unit": "nM"},
      {"measurement": "TΔS", "setting": "[1]", "result": -16.4, "unit": "kcal/mol"},
      {"measurement": "n (the binding stoichiometry)", "setting": "[1]", "result": 0.97},
      {"measurement": "ΔH", "setting": "[1]", "result": -28.1, "unit": "kcal/mol"}
    ]},
    {"molecule": "B1", "values": [
      {"measurement": "Kd", "setting": "[1]", "result": 170, "unit": "nM"},
      {"measurement": "TΔS", "setting": "[1]", "result": -4.17, "unit": "kcal/mol"},
      {"measurement": "n (the binding stoichiometry)", "setting": "[1]", "result": 0.99},
      {"measurement": "ΔH", "setting": "[1]", "result": -13.4, "unit": "kcal/mol"}
    ]},
    {"molecule": "B2", "values": [
      {"measurement": "Kd", "setting": "[1]", "result": 150, "unit": "nM"},
      {"measurement": "TΔS", "setting": "[1]", "result": -1.53, "unit": "kcal/mol"},
      {"measurement": "n (the binding stoichiometry)", "setting": "[1]", "result": 0.99},
      {"measurement": "ΔG", "setting": "[1]", "result": -12.3, "unit": "kcal/mol"},
      {"measurement": "ΔH", "setting": "[1]", "result": -10.8, "unit": "kcal/mol"}
    ]},
    {"molecule": "B3", "values": [
      {"measurement": "Kd", "setting": "[1]", "result": 110, "unit": "nM"},
      {"measurement": "TΔS", "setting": "[1]", "result": -8.4, "unit": "kcal/mol"},
      {"measurement": "n (the binding stoichiometry)", "setting": "[1]", "result": 1.02},
      {"measurement": "ΔH", "setting": "[1]", "result": -17.9, "unit": "kcal/mol"}
    ]}
  ]
}
